Consider 2 molecules from paper PMC12735872, “Development of ^18F/^11C-Labeled Pyrrolo-Pyridine/Pyrimidine LRRK2 Selective PET Radioligands” (Pharmaceuticals, 2025).

The nature of data set [1]: Free fraction in plasma (fp). Format: in vitro ADME. Conditions: method ref. 18. An excerpt:
Table 1 LRRK2 wild-type (WT) and G2019S Lanthascreen, MDR1-MDCK permeability (Papp A:B), and efflux ratio (B:A/A:B), free fractions in plasma (fp) and brain homogenate (fb) and PET Multi-Parameter Optimization (MPO) score of Compounds 1, 2, and 3. | column: fp ^3 (%)

Data set [2] has as its target T1, LRRK2 (Homo sapiens, UniProt Q5S007).
T1 construct: Human brains without pathological findings were acquired from the National Institute of Forensic Medicine; from tissue; host or cells: human post-mortem control brain, whole-hemisphere sections (100 µm)
Kind of data set: In vitro autoradiography, human whole-hemisphere brain slices. It is filed as binding. Conditions: human brain slices; cold compound 10 µM. Here is the method: Human brains without pathological findings were acquired from the National Institute of Forensic Medicine at Karolinska Institutet in Stockholm, Sweden. These brains were obtained during forensic autopsies (designated as control brain) and were processed in a manner like previously described methods. […] The brain was removed, and its tissues were kept in −85 °C until the sectioning process. The whole brain hemispheric slices were subsequently maintained at −25 °C until the commencement of autoradiography procedures. […] The sectioning of the brain and the autoradiography experiments were performed at the Psychiatry section, Department of Neuroscience, Karolinska Institutet, Sweden.
(§1) Whole brain hemispheres were sectioned into horizontal slices with a thickness of 100 µm using a Leica cryomacrocut system. The autoradiographic procedures followed the same protocols established in previous studies conducted in our laboratory. The whole-hemisphere sections of 100 micron thickness were incubated for 90 min at room temperature with their corresponding radiotracer (4 MBq/200 mL) in TRIS buffer (pH 7.4) containing sodium chloride (120 mM), potassium chloride (5 mM), calcium chloride (2 mM), and albumin (0.1% w/v). After incubation, sections were washed three times in the same buffer at room temperature for five minutes each, briefly dipped in ice-cold distilled water, dried, and then placed in the phosphor imaging plates. Binding density standards were prepared by serial dilution of the radioligand stock solution in the assay buffer. Readings were taken with the Fujifilm BAS-5000 (Fujifilm, Tokyo, Japan), while quantitative analysis was conducted with the Multi Gauge 3.2 image analysis software (Fujifilm, Tokyo, Japan). For blocking experiments, adjacent brain sections were co-incubated with LuAF66583 (0.1 µM or 10 µM).

Another data set concerns the target LRRK2 G2019S (Homo sapiens, UniProt Q5S007, G2019S). Kind of data set: LRRK2 G2019S Lanthascreen. It is filed as biochemical.
Data set [3] can be described thus: Free fraction in brain homogenate (fb). The settings on record: method ref. 18. Format: in vitro ADME. An excerpt: Table 1 LRRK2 wild-type (WT) and G2019S Lanthascreen, MDR1-MDCK permeability (Papp A:B), and efflux ratio (B:A/A:B), free fractions in plasma (fp) and brain homogenate (fb) and PET Multi-Parameter Optimization (MPO) score of Compounds 1, 2, and 3. | column: fb ^3 (%)

In data set [4] the test system is LRRK2. Put plainly: In vitro autoradiography, NHP brain slices. It is filed as binding. Conditions: cold compound 10 µM. Here is the method:
as §1, with “µM). […] The thickness differed from human tissue (20 µm).” for “µM).”

The target in a further data set is LRRK2 wild-type (WT) (Homo sapiens, UniProt Q5S007). Put plainly: LRRK2 wild-type Lanthascreen. It is filed as biochemical. Background: TR-FRET usually uses a lanthanide donor and a delayed reading to cut background.
Sequence of LRRK2 wild-type (WT) (Q5S007 whole entry): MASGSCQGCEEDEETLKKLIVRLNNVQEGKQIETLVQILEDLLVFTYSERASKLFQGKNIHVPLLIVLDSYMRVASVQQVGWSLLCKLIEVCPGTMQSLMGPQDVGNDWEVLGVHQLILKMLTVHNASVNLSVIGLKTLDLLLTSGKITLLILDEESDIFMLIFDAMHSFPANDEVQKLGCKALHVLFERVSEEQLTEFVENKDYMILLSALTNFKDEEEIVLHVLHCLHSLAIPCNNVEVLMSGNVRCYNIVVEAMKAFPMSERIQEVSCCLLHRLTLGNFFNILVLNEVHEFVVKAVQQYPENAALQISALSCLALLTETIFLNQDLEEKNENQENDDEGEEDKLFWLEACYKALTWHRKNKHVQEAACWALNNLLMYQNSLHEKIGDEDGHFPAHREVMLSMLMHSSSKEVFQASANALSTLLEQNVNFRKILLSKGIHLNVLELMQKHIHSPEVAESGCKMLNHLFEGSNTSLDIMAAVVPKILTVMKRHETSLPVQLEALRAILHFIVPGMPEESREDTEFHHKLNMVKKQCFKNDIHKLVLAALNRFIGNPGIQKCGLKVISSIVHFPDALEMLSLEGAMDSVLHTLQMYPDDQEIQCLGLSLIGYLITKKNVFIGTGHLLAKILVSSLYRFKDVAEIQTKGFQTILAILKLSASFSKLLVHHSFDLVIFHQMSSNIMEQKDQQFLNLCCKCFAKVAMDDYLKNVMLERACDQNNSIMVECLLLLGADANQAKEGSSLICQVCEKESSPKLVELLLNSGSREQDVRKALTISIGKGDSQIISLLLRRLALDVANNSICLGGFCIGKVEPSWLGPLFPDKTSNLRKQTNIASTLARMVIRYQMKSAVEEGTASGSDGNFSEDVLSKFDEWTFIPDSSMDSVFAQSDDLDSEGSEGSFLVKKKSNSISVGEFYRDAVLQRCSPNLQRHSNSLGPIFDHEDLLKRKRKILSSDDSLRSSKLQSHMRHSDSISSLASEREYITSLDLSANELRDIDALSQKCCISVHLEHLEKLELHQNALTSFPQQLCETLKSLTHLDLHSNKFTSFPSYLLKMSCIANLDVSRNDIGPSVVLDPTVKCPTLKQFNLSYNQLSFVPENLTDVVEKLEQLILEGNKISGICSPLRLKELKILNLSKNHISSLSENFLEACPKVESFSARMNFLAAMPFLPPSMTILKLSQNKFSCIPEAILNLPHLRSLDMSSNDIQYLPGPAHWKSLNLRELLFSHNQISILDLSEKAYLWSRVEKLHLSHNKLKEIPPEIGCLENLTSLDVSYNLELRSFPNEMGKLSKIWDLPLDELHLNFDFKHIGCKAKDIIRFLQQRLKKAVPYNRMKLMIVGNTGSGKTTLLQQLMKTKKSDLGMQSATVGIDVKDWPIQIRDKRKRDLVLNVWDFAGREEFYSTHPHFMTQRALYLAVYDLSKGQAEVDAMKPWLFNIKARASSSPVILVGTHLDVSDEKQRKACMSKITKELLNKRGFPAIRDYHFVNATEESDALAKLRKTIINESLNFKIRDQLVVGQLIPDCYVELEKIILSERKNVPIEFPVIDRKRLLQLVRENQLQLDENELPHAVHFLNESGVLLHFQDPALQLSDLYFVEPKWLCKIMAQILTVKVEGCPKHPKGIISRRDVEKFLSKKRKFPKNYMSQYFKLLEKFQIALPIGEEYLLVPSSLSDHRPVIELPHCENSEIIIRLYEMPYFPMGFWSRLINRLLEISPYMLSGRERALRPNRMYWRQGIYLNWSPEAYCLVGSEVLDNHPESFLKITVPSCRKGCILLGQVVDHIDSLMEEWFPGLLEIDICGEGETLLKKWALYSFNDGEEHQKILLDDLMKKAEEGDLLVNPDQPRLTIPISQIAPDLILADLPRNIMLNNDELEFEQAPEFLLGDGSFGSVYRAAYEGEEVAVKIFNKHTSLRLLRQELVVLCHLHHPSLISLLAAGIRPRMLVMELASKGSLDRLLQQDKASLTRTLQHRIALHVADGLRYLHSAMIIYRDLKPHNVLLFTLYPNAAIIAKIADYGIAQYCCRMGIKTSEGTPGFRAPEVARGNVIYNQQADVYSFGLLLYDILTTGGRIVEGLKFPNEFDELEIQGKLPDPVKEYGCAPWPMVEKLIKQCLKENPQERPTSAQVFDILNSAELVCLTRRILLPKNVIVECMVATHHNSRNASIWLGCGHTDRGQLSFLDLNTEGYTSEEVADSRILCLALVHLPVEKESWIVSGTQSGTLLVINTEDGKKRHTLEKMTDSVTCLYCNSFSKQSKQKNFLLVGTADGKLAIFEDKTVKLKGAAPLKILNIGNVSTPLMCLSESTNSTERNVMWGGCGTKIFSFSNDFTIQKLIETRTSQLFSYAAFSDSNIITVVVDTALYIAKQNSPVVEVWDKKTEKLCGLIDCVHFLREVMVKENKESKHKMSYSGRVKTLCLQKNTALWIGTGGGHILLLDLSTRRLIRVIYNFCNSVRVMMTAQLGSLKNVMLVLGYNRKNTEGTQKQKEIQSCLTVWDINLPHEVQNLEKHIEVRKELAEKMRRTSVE
A further data set relates to MDR1 (P-gp). Put plainly: MDR1-MDCK permeability and efflux ratio. Format: in vitro ADME. Conditions: dog, assay described in ref. 17; for Papp A→B: MDCK-MDR1; for efflux ratio: MDR1-MDCK, read-out: B:A/A:B (efflux ratio). The source says: Table 1 LRRK2 wild-type (WT) and G2019S Lanthascreen, MDR1-MDCK permeability (Papp A:B), and efflux ratio (B:A/A:B), free fractions in plasma (fp) and brain homogenate (fb) and PET Multi-Parameter Optimization (MPO) score of Compounds 1, 2, and 3. | column: Papp A:B ^2 (MDR1-MDCK) (cm/s × 10^−6); B:A/A:B ^2

Structures are written as SMILES. Read-outs that look alike come from different tables or passages of the source.

In general, fraction unbound refers to free concentration divided by total concentration. High values mean much free substance, low ones little free substance. As usually defined, the Papp A→B is how fast a substance crosses the layer from the apical side.

Sequence of LRRK2 G2019S (Q5S007 whole entry G2019S): as the sequence (Q5S007 whole entry) above, with G2019S counted along it
T1 sequence (Q5S007 whole entry): as the sequence (Q5S007 whole entry) above

On to `C[C@@H]1C[C@@H](F)CN1c1c(C#N)c2c(N)nccc2n1C` [Compound 1, 4-Amino-2-((2R,4R)-4-fluoro-2-methylpyrrolidin-1-yl)-1-methyl-1H-pyrrolo[3,2-c]pyridine-3-carbonitrile], for which the fraction unbound in data set [1] was 0.38; in data set [3] it was 0.13. The “Blocking of [^18F]1 binding (ARG)” value at LRRK2 [2] and in the data set on LRRK2 [4] was “effectively blocked” throughout. The Ki at LRRK2 G2019S (assay described in ref. 16, read-out: LRRK2 Lanthascreen G2019S cKi) came to 1 nM; on LRRK2 wild-type (WT) (assay described in ref. 16, read-out: LRRK2 Lanthascreen WT cKi) it was 0.7 nM. Besides, the apical-to-basolateral permeability (Papp A→B) with MDR1 (P-gp) was found to be 31 ×10⁻⁶ cm/s. Also, the efflux ratio with MDR1 (P-gp) is 0.66.

On to `C[C@@H]1CCCN1c1c(C#N)c2c(N)nc(Nc3cnn(C)c3)nc2n1C` [Compound 3, (R)-4-amino-7-methyl-2-((1-methyl-1H-pyrazol-4-yl)amino)-6-(2-methylpyrrolidin-1-yl)-7H-pyrrolo[2,3-d]pyrimidine-5-carbonitrile], for which the fraction unbound in data set [1] was determined as 0.04; in data set [3], 0.012. For the same molecule, the “Blocking of [^18F]1 binding (ARG)” value at LRRK2 [2] and in the data set on LRRK2 [4] was “effectively blocked” in each case. In addition, the Ki at LRRK2 G2019S was 0.28 nM; on LRRK2 wild-type (WT), 0.14 nM. Besides, in the data set with MDR1 (P-gp), the Papp A→B was 17 ×10⁻⁶ cm/s. For the same molecule, the efflux ratio in the data set with MDR1 (P-gp) came out at 0.8.
